What follows are compounds tested against Vascular endothelial growth factor receptor 2 (Homo sapiens, UniProt P35968) (assay: AlphaScreen Assay).
Chain of Vascular endothelial growth factor receptor 2 (P35968 whole entry): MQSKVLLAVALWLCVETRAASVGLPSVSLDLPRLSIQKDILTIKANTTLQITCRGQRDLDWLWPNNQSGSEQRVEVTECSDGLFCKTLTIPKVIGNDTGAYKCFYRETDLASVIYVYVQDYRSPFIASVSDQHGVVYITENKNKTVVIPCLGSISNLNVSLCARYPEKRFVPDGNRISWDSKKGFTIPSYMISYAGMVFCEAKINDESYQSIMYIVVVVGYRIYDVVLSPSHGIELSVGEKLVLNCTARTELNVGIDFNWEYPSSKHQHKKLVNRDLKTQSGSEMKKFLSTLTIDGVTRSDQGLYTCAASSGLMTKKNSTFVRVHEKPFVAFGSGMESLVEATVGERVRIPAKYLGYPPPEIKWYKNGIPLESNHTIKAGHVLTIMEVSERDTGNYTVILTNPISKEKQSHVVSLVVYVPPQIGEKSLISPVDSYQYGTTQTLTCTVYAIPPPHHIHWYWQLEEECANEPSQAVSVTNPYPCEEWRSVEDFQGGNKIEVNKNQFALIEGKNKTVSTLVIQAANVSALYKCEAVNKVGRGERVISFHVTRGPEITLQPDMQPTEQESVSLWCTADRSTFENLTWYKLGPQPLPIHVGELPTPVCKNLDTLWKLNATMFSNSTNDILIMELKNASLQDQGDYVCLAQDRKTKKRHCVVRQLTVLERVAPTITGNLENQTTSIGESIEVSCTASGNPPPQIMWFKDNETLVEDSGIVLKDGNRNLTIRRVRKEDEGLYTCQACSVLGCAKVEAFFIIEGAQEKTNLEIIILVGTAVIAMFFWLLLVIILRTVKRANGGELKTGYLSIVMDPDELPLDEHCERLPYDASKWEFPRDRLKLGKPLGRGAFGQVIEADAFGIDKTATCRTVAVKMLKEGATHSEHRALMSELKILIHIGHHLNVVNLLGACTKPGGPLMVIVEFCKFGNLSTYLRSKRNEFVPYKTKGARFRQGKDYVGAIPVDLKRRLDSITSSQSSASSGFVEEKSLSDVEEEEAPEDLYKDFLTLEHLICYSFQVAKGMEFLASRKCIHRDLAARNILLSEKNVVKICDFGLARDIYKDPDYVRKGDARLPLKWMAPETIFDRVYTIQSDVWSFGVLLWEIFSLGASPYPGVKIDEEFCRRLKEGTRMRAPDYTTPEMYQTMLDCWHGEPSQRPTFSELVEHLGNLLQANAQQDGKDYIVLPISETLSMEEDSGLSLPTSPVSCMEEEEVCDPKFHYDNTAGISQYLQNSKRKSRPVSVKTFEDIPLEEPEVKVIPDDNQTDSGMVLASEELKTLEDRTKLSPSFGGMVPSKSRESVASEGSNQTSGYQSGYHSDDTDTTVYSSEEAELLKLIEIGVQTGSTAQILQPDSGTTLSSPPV

| Compound | IC50 |
| --- | --- |
| COc1cc2c(Nc3cc(Cl)c(Cl)cc3F)ncnc2cc1OC[C@@H]1CO[C@H]2[C@@H]1OC[C@@H]2OC [US9796704, Entry 48] | in the range around 10500 nM |
| COc1cc2c(Nc3ccc(Br)c(Cl)c3)ncnc2cc1O[C@H]1CO[C@@H]2CCO[C@H]12 [US9796704, Entry 77] | in the range around 525 nM |
| COc1cc2c(Nc3ccc(F)cc3)ncnc2cc1O[C@@H]1CO[C@@H]2[C@H]1OC[C@H]2F [US9796704, Entry 115] | in the range around 10500 nM |
| COc1cc2c(Nc3ccc(Cl)c(Cl)c3)ncnc2cc1OCc1cscn1 [US9796704, Entry 170] | in the range around 525 nM |
| COc1cc2c(Nc3ccc(Cl)c(Cl)c3)ncnc2cc1OCC1CC1 [US9796704, Entry 182] | in the range around 525 nM |
| COc1cc2c(Nc3ccc(Cl)c(Cl)c3)ncnc2cc1OCC1CCCO1 (stereo unspecified) [US9796704, Entry 183] | in the range around 525 nM |
| COc1cc2c(Nc3ccc(Cl)c(Cl)c3)ncnc2cc1OC1CCCC1 [US9796704, Entry 184] | in the range around 525 nM |
| COc1cc2c(Nc3ccc(Cl)c(Cl)c3)ncnc2cc1OCCC1CCCCC1 [US9796704, Entry 185] | in the range around 525 nM |
| COc1cc2c(Nc3ccc(Cl)c(Cl)c3)ncnc2cc1OCC1CCCCC1 [US9796704, Entry 186] | in the range around 525 nM |
| COc1cc2c(Nc3ccc(Cl)c(Cl)c3)ncnc2cc1OCCN1CCCC1 [US9796704, Entry 191] | in the range around 525 nM |
| COc1cc2c(Nc3ccc(Cl)c(Cl)c3)ncnc2cc1OCC(=O)N1CCOCC1 [US9796704, Entry 195] | in the range around 525 nM |
| COc1cc2c(Nc3ccc(Cl)c(Cl)c3)ncnc2cc1OCc1nc(-c2ccc(O)c(C(N)=O)c2)cs1 [US9796704, Entry 200] | in the range around 525 nM |
| COc1cc2c(Nc3ccc(Cl)c(Cl)c3)ncnc2cc1OCc1nc(-c2cccnc2)cs1 [US9796704, Entry 201] | in the range around 525 nM |
| COc1cc2c(Nc3ccc(Cl)c(Cl)c3)ncnc2cc1OCc1nc(-c2ccccn2)cs1 [US9796704, Entry 202] | in the range around 525 nM |
| COc1cc2c(Nc3ccc(Cl)c(Cl)c3)ncnc2cc1OCc1nc(N2CCOCC2)no1 [US9796704, Entry 205] | in the range around 525 nM |
| COc1cc2c(Nc3ccc(Cl)c(Cl)c3)ncnc2cc1OCc1nc2c(s1)CNCC2 [US9796704, Entry 208] | in the range around 525 nM |
| COc1cc2c(Nc3ccc(Cl)c(Cl)c3)ncnc2cc1OCc1nc(CN2CCOCC2)cs1 [US9796704, Entry 209] | in the range around 525 nM |
| CCN1CCOC(COc2cc3ncnc(Nc4ccc(Cl)c(Cl)c4)c3cc2OC)C1 (stereo unspecified) [US9796704, Entry 212] | in the range around 10500 nM |
| COc1cc2c(Nc3ccc(Cl)c(Cl)c3)ncnc2cc1OCc1csc(C2CCNCC2)n1 [US9796704, Entry 213] | in the range around 525 nM |
| COc1cc2c(Nc3ccc(Cl)c(Cl)c3)ncnc2cc1OCc1csc(C2CCN(C)CC2)n1 [US9796704, Entry 214] | in the range around 525 nM |
| COc1cc2c(Nc3ccc(Cl)c(Cl)c3)ncnc2cc1OCc1nc(N2CCN(C(=O)OC(C)(C)C)CC2)no1 [US9796704, Entry 215] | in the range around 525 nM |
| CCN1CCCCC1c1nc(COc2cc3ncnc(Nc4ccc(Cl)c(Cl)c4)c3cc2OC)no1 (stereo unspecified) [US9796704, Entry 219] | in the range around 525 nM |

The remaining lines, values ahead:

| IC50 | Compound |
| --- | --- |
| < 50 nM | COc1cc2c(Nc3cc(Cl)c(Br)cc3F)ncnc2cc1OC[C@H]1CN2CCOCC2CO1 (stereo partly specified) [US9796704, Entry 20] |
| in the range around 525 nM | COc1cc2c(Nc3cccc(Cl)c3F)ncnc2cc1O[C@H]1CO[C@H]2[C@@H]1OC[C@@H]2OC [US9796704, Entry 71] |
| in the range around 525 nM | CCO[C@H]1CO[C@H]2[C@@H]1OC[C@@H]2Oc1cc2ncnc(Nc3ccc(Br)c(Cl)c3)c2cc1OC [US9796704, Entry 74] |
| in the range around 525 nM | COc1cc2c(Nc3cccc(Br)c3C)ncnc2cc1O[C@H]1CO[C@H]2[C@@H]1OC[C@@H]2OC [US9796704, Entry 75] |
| in the range around 525 nM | COc1cc2c(Nc3cccc(Cl)c3C)ncnc2cc1O[C@H]1CO[C@H]2[C@@H]1OC[C@@H]2OC [US9796704, Entry 76] |
| in the range around 525 nM | COc1cc2c(Nc3ccc(Br)c(Cl)c3)ncnc2cc1O[C@H]1CO[C@@H]2C3OC(C)(C)O[C@H]3O[C@H]12 (stereo partly specified) [US9796704, Entry 80] |
| in the range around 525 nM | COc1cc2c(Nc3cc(Cl)ccc3Cl)ncnc2cc1O[C@@H]1CO[C@@H]2[C@H]1OC[C@H]2F [US9796704, Entry 118] |
| in the range around 525 nM | COc1cc2c(Nc3ccc(Cl)c(Cl)c3)ncnc2cc1OCC1CN(C)CCO1 (stereo unspecified) [US9796704, Entry 151] |
| in the range around 525 nM | COc1cc2c(Nc3ccc(Cl)c(Cl)c3)ncnc2cc1OCc1noc(-c2ccc(C(F)(F)F)cc2)n1 [US9796704, Entry 167] |
| in the range around 525 nM | COc1cc2c(Nc3ccc(Cl)c(Cl)c3)ncnc2cc1OCC1CCC1 [US9796704, Entry 187] |
| in the range around 525 nM | COc1cc2c(Nc3ccc(Cl)c(Cl)c3)ncnc2cc1OCCC1OCCO1 [US9796704, Entry 188] |
| in the range around 525 nM | COc1cc2c(Nc3ccc(Cl)c(Cl)c3)ncnc2cc1OCCC1OCCCO1 [US9796704, Entry 189] |
| in the range around 525 nM | COc1cc2c(Nc3ccc(Cl)c(Cl)c3)ncnc2cc1OCCN1CCOCC1 [US9796704, Entry 190] |
| in the range around 525 nM | COc1cc2c(Nc3ccc(Cl)c(Cl)c3)ncnc2cc1OCCN1CCCCC1 [US9796704, Entry 192] |
| in the range around 525 nM | COc1cc2c(Nc3ccc(Cl)c(Cl)c3)ncnc2cc1OCc1nc(N(C)C)no1 [US9796704, Entry 206] |
| in the range around 525 nM | COc1cc2c(Nc3ccc(Cl)c(Cl)c3)ncnc2cc1OCc1nc(CN2CCN(C)CC2)cs1 [US9796704, Entry 207] |

The compounds below were run against Ephrin type-A receptor 2 (Homo sapiens, UniProt P29317) (assay: AlphaScreen Assay).
Chain of Ephrin type-A receptor 2 (P29317 whole entry): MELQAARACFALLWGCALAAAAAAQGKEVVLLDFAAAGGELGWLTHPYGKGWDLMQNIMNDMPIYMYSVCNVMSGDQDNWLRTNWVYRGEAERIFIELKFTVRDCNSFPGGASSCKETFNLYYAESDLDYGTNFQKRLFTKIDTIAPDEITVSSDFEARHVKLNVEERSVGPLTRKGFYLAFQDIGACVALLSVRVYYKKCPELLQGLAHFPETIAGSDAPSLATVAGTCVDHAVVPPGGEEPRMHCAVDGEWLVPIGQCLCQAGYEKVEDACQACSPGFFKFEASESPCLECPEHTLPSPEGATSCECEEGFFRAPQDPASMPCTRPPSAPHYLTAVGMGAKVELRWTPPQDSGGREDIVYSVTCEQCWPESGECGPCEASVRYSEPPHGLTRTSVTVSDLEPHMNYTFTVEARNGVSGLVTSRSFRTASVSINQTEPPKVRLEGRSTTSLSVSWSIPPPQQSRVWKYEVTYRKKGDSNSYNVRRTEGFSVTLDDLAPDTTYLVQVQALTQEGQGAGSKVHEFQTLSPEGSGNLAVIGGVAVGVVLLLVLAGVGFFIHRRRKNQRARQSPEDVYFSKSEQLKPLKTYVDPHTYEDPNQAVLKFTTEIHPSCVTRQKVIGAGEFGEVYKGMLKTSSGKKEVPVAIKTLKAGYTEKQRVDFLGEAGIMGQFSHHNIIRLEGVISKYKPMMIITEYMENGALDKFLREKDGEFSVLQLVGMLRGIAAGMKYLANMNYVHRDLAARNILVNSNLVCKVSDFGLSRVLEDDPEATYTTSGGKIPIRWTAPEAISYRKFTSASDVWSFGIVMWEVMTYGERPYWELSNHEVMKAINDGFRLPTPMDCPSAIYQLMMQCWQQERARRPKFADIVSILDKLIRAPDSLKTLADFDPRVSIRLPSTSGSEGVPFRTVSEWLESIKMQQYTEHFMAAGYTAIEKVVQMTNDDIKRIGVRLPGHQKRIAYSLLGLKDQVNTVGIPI

| Compound | IC50 |
| --- | --- |
| COc1cc2c(Nc3ccc(Cl)c(Cl)c3)ncnc2cc1OC[C@H]1CN2CCC[C@@H]2CO1 [US9796704, Entry 31] | < 50 nM |
| COc1cc2c(Nc3ccc(Br)c(Cl)c3Cl)ncnc2cc1OC[C@@H]1CN2CCC[C@H]2CO1 [US9796704, Entry 39] | in the range around 525 nM |
| COc1cc2c(Nc3cc(F)c(Br)c(Cl)c3)ncnc2cc1O[C@@H]1CO[C@@H]2[C@H]1OC[C@H]2F [US9796704, Entry 104] | in the range around 525 nM |
| COc1cc2c(Nc3ccc(Cl)c(Cl)c3)ncnc2cc1OCC1CN(C)CCCO1 (stereo unspecified) [US9796704, Entry 155] | in the range around 525 nM |

The remaining lines, values ahead:

| IC50 | Compound |
| --- | --- |
| in the range around 525 nM | COc1cc2c(Nc3ccc(Br)c(Cl)c3)ncnc2cc1O[C@H]1CO[C@@H]2C3OC(C)(C)O[C@H]3O[C@H]12 (stereo partly specified) [US9796704, Entry 80] |
| in the range around 525 nM | COc1cc2c(Nc3ccc(Cl)c(Cl)c3)ncnc2cc1OCc1noc(CN(C)C)n1 [US9796704, Entry 138] |
| in the range around 525 nM | COc1cc2c(Nc3ccc(Cl)c(Cl)c3)ncnc2cc1OCc1nc(CN2CCN(C)CC2)no1 [US9796704, Entry 140] |
| in the range around 525 nM | COc1cc2c(Nc3ccc(Cl)c(Cl)c3)ncnc2cc1OCc1noc(C)c1-c1ccccc1 [US9796704, Entry 161] |
